Each structure is given as a SMILES string. Structures can show the parent of a compound that is named as a salt. Where two headings read alike, the source gives them in different places.

One assay deals with recombinant human PARP2 (Homo sapiens, UniProt Q9UGN5). Put plainly: PARP2 fluorescence polarization binding assay. The following applies: read-out: PARP2 % inh at 10 μM.
In the next assay the target is recombinant human PARP1 (Homo sapiens, UniProt P09874). The assay is described as follows: PARP1 fluorescence polarization binding assay. Conditions: GST-tagged PARP1 20 nM, PARP1-FL probe 3 nM. As to the method: In some embodiments, the biological assay is described in the Examples herein. In some embodiments, the biological assay measures PARP-1 binding by way of fluorescence polarization measurements. In some embodiments, binding of a test compound to recombinant human PARP-1 reduces the amount of binding of a fluorescent probe, and consequently reduces the detected level of fluorescence polarization. In some test compound stock solutions are prepared in a solvent, e.g., DMSO, and are serially diluted into a range of concentrations, e.g., 15 concentrations, 14 concentrations, 13 concentrations, 12 concentrations, 11 concentrations, 10 concentrations, 9 concentrations, 8 concentrations, 7 concentrations, 6 concentrations, or 5 concentrations, by a dilution factor, e.g., a 10-fold dilution factor, a 9-fold dilution factor, an 8-fold dilution factor, a 7-fold dilution factor, a 6-fold dilution factor, a 5-fold dilution factor, a 4-fold dilution factor, a 3-fold dilution factor, or a 2-fold dilution factor. In some embodiments, the serial dilutions, e.g., 100 nL of serial dilution, 90 nL of serial dilution, 80 nL of serial dilution, 70 nL of serial dilution, 60 nL of serial dilution, 50 nL of serial dilution, 30 nL of serial dilution, 20 nL of serial dilution, or 10 nL of serial dilution, are added to a multi-welled plate, e.g., a 1536-well plate, a 384-well plate, or a 96-well plate. In some embodiments, PARP-1, e.g., GST-tagged PARP-1, is diluted in assay buffer, e.g., 50 μL of assay buffer, 40 μL of assay buffer, e.g., 30 μL of assay buffer, 20 μL of assay buffer, 10 μL of assay buffer, or 5 μL of assay buffer, and is added to the plate. In some embodiments, the plate is centrifuged, e.g., at 1000 rpm for 1 min, and incubated, e.g., incubated for 30 minutes at room temperature (RT). In some embodiments, a fluorescent probe, e.g., 10 μL of 6 nM PARP1-FL (TOCRIS, Cat #6461), is diluted in an assay buffer and is added to the plate. In some embodiments, the final concentrations of PARP-1 and fluorescent probe are 20 nM and 3 nM, respectively, in a total volume of 20 μL. In some embodiments, the plate is centrifuged, e.g., at 1000 rpm for 1 minute, and the assay plate is incubated, e.g., for 4 h at RT. In some embodiments, the samples in each well are read using a plate reader, e.g., an Envision instrument using excitation=480 nm, and emission wavelength=FITC FP-P pol 535 nm & FITC FP-S pol 535 nm). In some embodiments, percent inhibition is calculated from mP values using Inhibition (%)=[1−(mPc−mPL)/(mPH−mPL)]×100%, where mPc, mPL, and mPH are the mP values of test compound, Low controls, and High controls, respectively. In some embodiments, binding IC50 values are calculated using XLFit (equation 201: y=A+((B−A)/(1+((x/C)^D))), where A=bottom, B=top, C=IC50, and D=slope) with a floating top and bottom for curves.
Compounds of the present disclosure were tested in a PARP1 fluorescence polarization binding assay at Pharmaron (Beijing, P.R. China). In this biochemical assay, binding of test compound to recombinant human PARP1 reduces the amount of binding of a fluorescent probe, and consequently reduces the detected level of fluorescence polarization. Test compound stock solutions were prepared in DMSO and then serially diluted into 10 concentrations by 3-fold dilution in a 384-well plate using a TECAN EVO200. Alternatively, a single concentration was prepared. 60 nL of each dilution was transferred to the plate using an Echo550 (Labcyte), and then 10 μL 40 nM GST-tagged PARP1 (BPS Bioscience, Cat #80501), diluted in assay buffer (50 mM Tris pH 8.0, 0.001% Triton X-100, 10 mM MgCl2, 150 mM NaCl), was added to the plate. After a centrifugation at 1000 rpm for 1 min, the assay plate was incubated for 30 min at RT. 10 μL 6 nM PARP1-FL (TOCRIS, Cat #6461), diluted using assay buffer, was then added to the plate. The final concentrations of PARP1 and PARP1-FL were 20 nM and 3 nM, respectively, in a total volume of 20 μL. […]
(Polarisation of emitted light reports the rotation of a fluorescent probe.)

In assay [1] the test system is DLD-1 BRCA2(−/−) colorectal adenocarcinoma cells. The assay is described as follows: Cell viability assay (Cell Titer-Glo, 7 days), DLD-1 BRCA2(−/−). It is filed as cell-based. The following applies: Homo sapiens, 168 h, DLD-1 BRCA2(−/−) cells. An excerpt: (§1) In some embodiments, the biological assay measures the effects that compounds of the present disclosure may have on the viability of cells, e.g., the viability of cancer cells. In some embodiments, DLD-1 wild-type and DLD-1 BRCA2(−/−) colorectal adenocarcinoma cells, an isogenic pair of cell lines differing in the presence and absence, respectively, of both BRCA2 alleles, are used to measure the effect of the disclosed compounds on the viability of cancer cells. In some embodiments, the cells are harvested during the logarithmic growth period, counted, and seeded at a specified count in the wells of a 96- or 384-well cell culture plate. In some embodiments, after seeding, the cells are incubated, e.g., at 37° C., 5% CO2 overnight. In some embodiments, the cells are treated with compounds, e.g., with serially diluted test compounds at 8-11 concentrations within a desired concentration range, e.g., from 1 nM-10 μM, for the generation of dose-response curves. In some embodiments, the plate is further incubated, e.g., for another 3-7 days in a humidified incubator at 37° C. and 5% CO2. In some embodiments, cell viability is assessed by luminescence measurement after addition of Cell Titer-Glo reagent (Promega, Madison, Wis.) according to the manufacturer's instructions. In some embodiments, cell viability IC50 values are calculated using XLFit, equation 201: y=A+((B−A)/(1+((x/C)^D))), where A=bottom, B=top, C=IC50, and D=slope. In some embodiments, the effects of the test compounds on the viability of other cell lines such as MDA-MB-436, MDA-MB-231, SUM149PT, HCC1395, and UWB1.289 are determined in an analogous method.
(§2) Compounds of the present disclosure were tested for their effects on the viability of cancer cells. DLD-1 wild-type and DLD-1 BRCA2(−/−) colorectal adenocarcinoma cells, an isogenic pair of cell lines differing in the presence and absence, respectively, of both BRCA2 alleles, were used. The cells were harvested during the logarithmic growth period, counted, and seeded at 50 cells/well for DLD-1 wild-type and 200 cells/well for DLD-1 BRCA2(−/−) in a 384-well cell culture plate. After seeding, cells were incubated at 37° C., 5% CO2 overnight. Cells were treated with serially diluted test compounds at 10 concentrations (e.g., from 1.5 nM-30 μM) for generation of dose response curves, or at a single concentration. The plate was further incubated for another 7 days in a humidified incubator at 37° C. and 5% CO2. Cell viability was assessed by luminescence measurement after addition of Cell Titer-Glo reagent (Promega, Madison, Wis.) according to the manufacturer's instructions. Cell viability IC50 values were calculated using XLFit, equation 201. y=A+((B−A)/(1+((x/C)^D))), where A=bottom, B=top, C=IC50, and D=slope. IC50 values are shown in Table B and are presented in ranges, in which “+++”<300 nM, 300 nM≤“++”<3000 nM, and “+”≥3000 nM. Values for percent inhibition at 10 μM are also shown in Table B and are presented in ranges, in which “***”≥67%, 33%: “**”≤67%, and “*”<33%. Effects of the test compounds on the viability of other cell lines such as MDA-MB-436, MDA-MB-231, SUM149PT, HCC1395, and UWB1.289 are determined in an analogous method.
(In general: Cellular ATP, detected with luciferase, serves as a proxy for viable cell number.)

Assay [2] has as its system DLD-1 wild-type colorectal adenocarcinoma cells. Put plainly: Cell viability assay (Cell Titer-Glo, 7 days), DLD-1 wild-type. It is filed as cell-based. The following applies: Homo sapiens, 168 h, DLD-1 wild-type cells, read-out: DLD-1 wild-type % inh at 10 μM.
Source text: as §1, §2

[3] abbreviates: percent inhibition at 10 μM, fluorescence polarization, GST-tagged PARP2 20 nM, PARP1-FL probe 3 nM.

Sequence of recombinant human PARP1 (P09874 whole entry): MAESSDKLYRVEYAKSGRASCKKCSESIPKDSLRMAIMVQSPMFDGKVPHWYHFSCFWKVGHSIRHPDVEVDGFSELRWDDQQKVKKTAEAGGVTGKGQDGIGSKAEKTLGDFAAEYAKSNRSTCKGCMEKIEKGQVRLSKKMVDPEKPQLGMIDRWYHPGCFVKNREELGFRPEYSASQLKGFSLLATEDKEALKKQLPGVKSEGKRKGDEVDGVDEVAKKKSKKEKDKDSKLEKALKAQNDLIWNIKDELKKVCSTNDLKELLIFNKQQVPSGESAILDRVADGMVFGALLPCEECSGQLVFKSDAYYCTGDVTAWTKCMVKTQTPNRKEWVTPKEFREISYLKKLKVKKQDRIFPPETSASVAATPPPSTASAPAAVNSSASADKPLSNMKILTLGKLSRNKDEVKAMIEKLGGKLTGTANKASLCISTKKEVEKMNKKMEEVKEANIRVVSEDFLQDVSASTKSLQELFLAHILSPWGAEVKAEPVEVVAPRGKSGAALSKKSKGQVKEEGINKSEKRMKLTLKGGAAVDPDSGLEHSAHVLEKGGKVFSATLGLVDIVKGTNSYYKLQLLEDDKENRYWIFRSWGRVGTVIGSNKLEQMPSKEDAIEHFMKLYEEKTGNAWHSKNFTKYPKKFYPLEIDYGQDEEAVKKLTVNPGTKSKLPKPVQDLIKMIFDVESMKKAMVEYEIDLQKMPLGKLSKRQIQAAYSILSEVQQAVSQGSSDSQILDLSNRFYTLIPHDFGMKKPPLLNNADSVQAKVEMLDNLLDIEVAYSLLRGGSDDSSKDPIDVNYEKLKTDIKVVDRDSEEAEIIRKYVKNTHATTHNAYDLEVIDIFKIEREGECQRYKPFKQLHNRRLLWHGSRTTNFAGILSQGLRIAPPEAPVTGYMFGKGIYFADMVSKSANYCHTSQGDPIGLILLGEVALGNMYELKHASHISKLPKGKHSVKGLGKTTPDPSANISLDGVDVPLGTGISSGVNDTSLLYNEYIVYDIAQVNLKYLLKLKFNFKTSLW
Sequence of recombinant human PARP2 (Q9UGN5 whole entry): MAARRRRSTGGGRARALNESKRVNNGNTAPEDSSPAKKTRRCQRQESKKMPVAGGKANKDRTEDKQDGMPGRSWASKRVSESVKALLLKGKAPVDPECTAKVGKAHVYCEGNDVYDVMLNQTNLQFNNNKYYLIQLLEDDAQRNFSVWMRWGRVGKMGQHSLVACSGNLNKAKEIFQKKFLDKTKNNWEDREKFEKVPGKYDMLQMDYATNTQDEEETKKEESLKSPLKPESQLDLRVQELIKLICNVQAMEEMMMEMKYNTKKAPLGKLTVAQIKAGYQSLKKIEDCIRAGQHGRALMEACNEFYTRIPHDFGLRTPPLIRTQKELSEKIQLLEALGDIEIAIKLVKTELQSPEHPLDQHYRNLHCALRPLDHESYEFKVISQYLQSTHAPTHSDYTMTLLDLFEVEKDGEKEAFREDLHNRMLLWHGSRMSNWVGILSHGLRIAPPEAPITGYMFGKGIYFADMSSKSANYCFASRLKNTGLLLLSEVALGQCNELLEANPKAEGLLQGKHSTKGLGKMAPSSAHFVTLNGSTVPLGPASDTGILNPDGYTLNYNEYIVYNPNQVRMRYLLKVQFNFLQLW

Turning to `CCNC(=O)Nc1cc(CN2CCN(c3ccc(C(=O)NC)nc3C)CC2)ncn1` [Compound 230, 5-(4-((6-(3-ethylureido)pyrimidin-4-yl)methyl)piperazin-1-yl)-N,6-dimethylpicolinamide formate], the inhibition at 10 µM (at recombinant human PARP2; in assay [2]) was less than 33% in each case. Also, the IC50 on recombinant human PARP1 was less than 0.1 µM; in assay [1], less than 0.3 µM.
Regarding `CCNC(=O)Nc1ncc(CN2CCN(c3ccc(C(=O)NC)nc3C)CC2)s1` [Compound 242, 5-(4-((2-(3-ethylureido)thiazol-5-yl)methyl)piperazin-1-yl)-N,6-dimethylpicolinamide trifluoroacetate], the inhibition at 10 µM (on recombinant human PARP2; in assay [2]) was less than 33% in each case. Further, the IC50 at recombinant human PARP1 is less than 0.1 µM; in assay [1], 0.3 to 3 µM.
For `CCNC(=O)Nc1ncc(CN2CCN(c3ccc(C(=O)NC)nc3C)CC2)o1` [Compound 246, 5-(4-((2-(3-ethylureido)oxazol-5-yl)methyl)piperazin-1-yl)-N,6-dimethylpicolinamide], the inhibition at 10 µM (on recombinant human PARP2 (setting [3]); in assay [2]) was less than 33% each time. Besides, the IC50 at recombinant human PARP1 is less than 0.1 µM; in assay [1], less than 0.3 µM.
Regarding `CCNC(=O)Nc1cc(CN2CCN(c3cnc4c(NC)nccc4c3)CC2)ccn1` [Compound 257, 1-ethyl-3-(4-((4-(8-(methylamino)-1,7-naphthyridin-3-yl)piperazin-1-yl)methyl)pyridin-2-yl)urea], the inhibition at 10 µM on recombinant human PARP2 (setting [3]) was 33 to 67%; in assay [2] it was less than 33%. Besides, the IC50 at recombinant human PARP1 was less than 0.1 µM; in assay [1] it was 0.3 to 3 µM.
In the case of `CNC(=O)c1ccc(N2CCN(Cc3ccnc(NC(=O)NC(C)C)c3)CC2)c(C)n1` [Compound 259, 5-(4-((2-(3-isopropylureido)pyridin-4-yl)methyl)piperazin-1-yl)-N,6-dimethylpicolinamide], the inhibition at 10 µM (on recombinant human PARP2 (setting [3]); in assay [2]) was less than 33% throughout. In addition, the IC50 at recombinant human PARP1 is less than 0.1 µM; in assay [1], 0.3 to 3 µM.
With `CCNC(=O)Nc1nccc(CN2CCN(c3ccc(C(=O)NC)nc3C)CC2)c1C` [Compound 260, 5-(4-((2-(3-ethylureido)-3-methylpyridin-4-yl)methyl)piperazin-1-yl)-N,6-dimethylpicolinamide hemiformate], the inhibition at 10 µM (at recombinant human PARP2; in assay [2]) was less than 33% each time. The IC50 was less than 0.1 µM at recombinant human PARP1 and 0.3 to 3 µM in assay [1].
Take `CNC(=O)c1ccc(N2CCN(Cc3ccnc(NC(=O)NCCF)c3)CC2)c(C)n1` [Compound 261, 5-(4-((2-(3-(2-fluoroethyl)ureido)pyridin-4-yl)methyl)piperazin-1-yl)-N,6-dimethylpicolinamide]: the inhibition at 10 µM (at recombinant human PARP2 (setting [3]); in assay [2]) was less than 33% in each case. Besides, the figures for the IC50 (on recombinant human PARP1; in assay [1]) were less than 0.1 µM and less than 0.3 µM, respectively.
Regarding `CNC(=O)c1ccc(N2CCN(Cc3ccnc(NC(=O)NCC(F)F)c3)CC2)c(C)n1` [Compound 262, 5-(4-((2-(3-(2,2-difluoroethyl)ureido)pyridin-4-yl)methyl)piperazin-1-yl)-N,6-dimethylpicolinamide], the inhibition at 10 µM (on recombinant human PARP2 (setting [3]); in assay [2]) was less than 33% each time. Further, the IC50 was less than 0.1 µM at recombinant human PARP1 and less than 0.3 µM in assay [1].
Consider `CCNC(=O)Nc1cc(CN2CCN(c3ccc(C#N)cn3)CC2)ccn1` [Compound 263, 1-(4-((4-(5-cyanopyridin-2-yl)piperazin-1-yl)methyl)pyridin-2-yl)-3-ethylurea], for which the inhibition at 10 µM (at recombinant human PARP2 (setting [3]); in assay [2]) was less than 33% each time. Further, the IC50 at recombinant human PARP1 is less than 0.1 µM; in assay [1], less than 0.3 µM.
As for `CCNC(=O)Nc1cc(CN2CCN3c4ccc(C(=O)NC)nc4OC[C@H]3C2)ccn1` [Compound 264, (R)-3-((2-(3-ethylureido)pyridin-4-yl)methyl)-N-methyl-1,2,3,4,4a,5-hexahydropyrazino[1,2-d]pyrido[2,3-b][1,4]oxazine-8-carboxamide], the inhibition at 10 µM is 33 to 67% on recombinant human PARP2 (setting [3]) and less than 33% in assay [2]. Moreover, the IC50 is less than 0.1 µM on recombinant human PARP1 and less than 0.3 µM in assay [1].
`CCNC(=O)Nc1cc(CN2CCN(c3ccc(C#N)nc3)CC2)ccn1` [Compound 267, 1-(4-((4-(6-cyanopyridin-3-yl)piperazin-1-yl)methyl)pyridin-2-yl)-3-ethylurea formate]: the inhibition at 10 µM (at recombinant human PARP2; in assay [2]) was less than 33% throughout. The IC50 was less than 0.1 µM at recombinant human PARP1 and less than 0.3 µM in assay [1].

The term IC50 denotes the concentration needed to halve the response being measured.

These data come from patent publication US20240343710A1, “HETEROCYCLIC COMPOUNDS AND METHODS OF USE THEREOF” (1cBio, Inc., priority 2023, published 2024).
